Results taken from patent publication US10093674B2, “Supramolecular nanofibers and hydrogels based on nucleic acids functionalized with nucleobases” (Brandeis University, priority 2011, dated 2018).

Key:
mammalian cells = settings: 500 μM, 72 hours; for cell viability: mammalian cells, MTT assay
Description: To verify the biocompatibility of the hydrogelators, hydrogelators 1′ and 2′ were added into a culture of mammalian cells, and the proliferation of the cells was measured.

HeLa cells [1] = settings: 500 μM, 72 hours; for cell viability: MTT assay
From the text: To verify the biocompatibility of the hydrogelators, we added hydrogelator 1 or precursor 2 into the culture of HeLa cells and measured the proliferation of the cells.

HeLa cells [2] = settings: 500 μM in medium, 20 h
Description: HeLa cells were re-suspended in 10 cm tissue culture dish after washing cells once with PBS. 0.8 mL 0.25% trypsin containing 0.1% EDTA was then added, and the cells were re-suspended with 1.6 mL complete medium. 5000 cells (in 100 μL medium) were plated into each vial on a 96 well plate to create a confluent monolayer. After adherent for 24 h, a wound was created by scraping the cell monolayer with a p200 pipet tip. The cells were washed once with 100 μL of complete medium to remove flowing cells and replace with 100 μL of complete medium. 0 h image was acquired as a reference point. […] 0 h and 20 h images were acquired at the match photographed region.

HeLa cells [3] = settings: 500 μM 1T′ and 0.1 μM nucleic acid complex, 24 h
Description: HeLa cells were seeded in 2 well chamber slide at a density of 10,000 cell/well. […] After incubation at 37° C. for 24 h, we removed the culture medium, washed the cells by 1 mL PBS for 3 times, then resin the cells in 1 mL PBS. Fluorescence images were taken by using confocal fluorescence microscope. FIG. 34.

[4] = tested on: alkaline phosphatase (ALP); settings: 12 h after the addition of alkaline phosphatase, 31P NMR
From the text: Following the procedures reported by Nieddu for making nucleobase acetic acids, we first synthesized bis(tert-butyloxycarbonyl) (bis-Boc) protected adenine, (N^6-bis-Boc-adenine-9-yl)-acetic acid (4). After being activated by N-hydroxysuccinimide (NHS), 4 reacts with L-Phe to afford 5, which undergoes the same NHS activation and phenylalanine coupling to give the key intermediate 6.

Substance: Adenine-Phe-Phe-glucosamine [2A′]
- cell viability (mammalian cells): 90%

Substance: Cytosine-Phe-Phe [Compound 1C]
- cell viability (HeLa cells [1]): 100%

Substance: Guanine-Phe-Phe-glucosamine [2G′]
- cell viability (mammalian cells): 90%

Substance: Guanine-Phe-Phe-Tyr-phosphate [Compound 2G]
- cell viability (in words) (HeLa cells [1]): decreases slightly

Substance: Thymine-Phe-glucosamine [1T′]
- effect on the migration of cells (HeLa cells [2]): little inhibitory effect
- cell viability (mammalian cells): 90%
- delivery of FITC-labeled nucleic acid (HeLa cells [3]): nuclear localization of DNA

Substance: Adenine-Phe-Phe [Compound 1A]
- cell viability (HeLa cells [1]): 100%

Substance: Thymine-Phe-Phe-Tyr-phosphate [Compound 2T]
- cell viability (HeLa cells [1]): 100%

Substance: Guanine-Phe-glucosamine [1G′]
- cell viability (mammalian cells): 90%

Substance: Adenine-Phe-Phe-Tyr-phosphate [Compound 2A]
- cell viability (HeLa cells [1]): 100%
- transformation of precursor into hydrogelator [4]: completely transforms

Substance: Guanine-Phe-Phe [Compound 1G]
- cell viability (in words) (HeLa cells [1]): decreases slightly

Substance: Cytosine-Phe-Phe-Glucosamine [2C′]
- cell viability (mammalian cells): 90%

Substance: Cytosine-Phe-Phe-Tyr-phosphate [Compound 2C]
- cell viability (HeLa cells [1]): 100%

Substance: Thymine-Phe-Phe [Compound 1T]
- cell viability (HeLa cells [1]): 100%

Substance: Thymine-Phe-Phe-glucosamine [2T′]
- cell viability (mammalian cells): 90%

Substance: Adenine-Phe-glucosamine [1A′]
- cell viability (in words) (mammalian cells): decreased slightly

Substance: Cytosine-Phe-Glucosamine [1C′]
- cell viability (in words) (mammalian cells): decreased slightly
